Counter-ions that a name gives are not always drawn. Like-named read-outs stand apart in the source and are kept apart here.
Columns and labels:
[1] = test system: Wistar male rats; details: iv; for Area of plasma insulin, test compound-administered group: after glucose-loading (10 mg/kg iv)
Experimental: Wistar male rats (body weight: about 250 g) starved for 18 hours were anesthetized by intraperitoneal administration of sodium pentobarbital (50 mg/kg), and fixed at the dorsal position. Cannulas were inserted into the right common carotid artery for blood collection and the left femoral vein for administration of drug and glucose, respectively. To these rats were intravenously administered 500 U/kg of heparin to prevent blood coagulation. After about 0.2 ml of blood was collected, a drug was intravenously administered. Two minutes after the administration of the drug, blood was collected, and then glucose (10 mg/kg) was immediately administered intravenously. Then, blood was collected every 20 seconds for 2 minutes. Insulin concentration in plasma obtained by centrifugation was measured by radioimmunoassay. From an insulin concentration which increased after the glucose-loading, its area was calculated and considered the amount of secreted insulin. The insulin level was indicated as the amount of rat insulin (ng/mL).

[2] = test system: dd male mice; experiment: Acute toxicity test (minimum lethal dose); type: in vivo; details: po, mortality after seven days
Experimental: A test compound was orally administered to dd male mice (body weight: 20±1 g, n=3). Mortality rate after seven days was measured to determine minimum lethal dose (MLD).

[3] = test system: Wistar male rats; experiment: Hyperglycemia suppression action after glucose-loading; type: in vivo; details: 30 mg/kg, po
Experimental: These rats were used for the experiment after starvation for 18 hours. A test compound was orally administered 1 hour before oral administration of glucose (2 g/kg). Jugular venous blood was collected before the administration of test compound, before the glucose-loading, 5, 10, 15, 30, 45 and 60 minutes after the glucose-loading, and plasma glucose concentration was measured (enzymatic method). The insulin level was indicated as amount of rat insulin (ng/mL).

[4] = test system: MIN6 cell; experiment: Insulin secretion enhancing action in cultured β-cell (MIN6); type: cell-based; details: in the presence of 14.5 mM glucose; drug concentration 1.0 μM
Experimental: Culture of the MIN6 cells and insulin secretion test utilizing the MIN6 cells were performed basically according to the methods described in literature (Ishihara et al., Diabetologia, vol. 36, pp.1139-1145, 1993). The effect of a compound on the insulin secretion in the presence of 14.5 mM glucose was determined by measuring insulin amounts in cell culture supernatants collected as follows. MIN6 cells cultured on a 24-well plate were washed twice by using 1 ml of Buffer A (119 mM sodium chloride, 4.74 mM potassium chloride, 2.54 mM calcium chloride, 1.19 mM magnesium sulfate, 1.19 mM potassium dihydrogenphosphate, 10 mM 2-[4-(2-hydroxyethyl)-1-piperazinyl]ethanesulfonic acid, 0.1% bovine serum albumin, pH 7.3) containing 2 mM glucose, and then were incubated in 1 ml of Buffer A containing 2 mM glucose at 37° C. for 45 minutes. After the incubation, the culture supernatant was changed to Buffer A (0.9 ml) containing a test compound at various concentrations and 2 mM glucose, and the cells were further incubated at 37° C. for 15 minutes. The MIN6 cells were stimulated with glucose by the addition of Buffer A (0.1 ml) containing 127 mM glucose to the culture (final glucose concentration: 14.5 mM). After the stimulation, the cells were further incubated at 37° C. for 45 minutes, and then the culture supernatant was collected.
Separately, the effect of a compound on the insulin secretion in the presence of 5 mM glucose was determined by measuring insulin amounts in cell culture supernatants collected as follows. MIN6 cells cultured on a 24-well plate were washed twice by using 1 ml of Buffer A containing 5 mM glucose, and then the culture supernatant was changed to Buffer A (0.9 ml) containing a test compound at various concentrations and 5 mM glucose. Then, the cells were incubated at 37° C. for 45 minutes (final glucose concentration: 5 mM), and the culture supernatant was collected.
After the culture supernatant was diluted with a phosphate buffer containing 1% bovine serum albumin, 0.1% Tween 20, 0.12% disodium ethylenediaminetetraacetate and 0.1% sodium azide, antibody-reactive insulin secreted in the culture supernatant was quantified by enzyme immunoassay or radio immunoassay. […] The results are indicated as averages (avg) for 3 to 4 samples with standard error values (se).

Compound	Amount of secreted insulin (ng/ml) avg [4]	% Ratio based on control (area of plasma insulin) ([1]; 1 mg/kg)	Area of plasma insulin, test compound-administered group ([1]; 1 mg/kg)	other results
CCCN1C(=O)N2C[C@@H](Cc3ccccc3)N=C2c2[nH]c(C3CCCC3)nc21 [Compound 16, (R)-8-benzyl-2-cyclopentyl-7,8-dihydro-4-propyl-1H-imidazo[2,1-i]purin-5(4H)-one hydrochloride]	229.5 ng/mL	–	–	% Ratio based on control (area of plasma insulin) ([1]; 3 mg/kg): 246 ± 19%; Area of plasma insulin, test compound-administered group ([1]; 3 mg/kg): 17.28 ± 1.35 ng·s/mL; minimum lethal dose (MLD) [2]: not less than 300 mg/kg; Plasma glucose concentration ([3]; 0 minute (before glucose-loading)): 102 ± 4.6 mg/dL; Plasma glucose concentration ([3]; 5 minutes after glucose-loading): 147 ± 5.7 mg/dL; Plasma glucose concentration ([3]; 10 minutes after glucose-loading): 183 ± 9.1 mg/dL; Plasma glucose concentration ([3]; 15 minutes after glucose-loading): 186 ± 8.7 mg/dL; Plasma glucose concentration ([3]; 30 minutes after glucose-loading): 167 ± 3.3 mg/dL; Plasma glucose concentration ([3]; 45 minutes after glucose-loading): 165 ± 4.8 mg/dL; Plasma glucose concentration ([3]; 60 minutes after glucose-loading): 178 ± 4.7 mg/dL; Plasma glucose concentration ([3]; −1 minute): 114 ± 4.5 mg/dL
CCCN1C(=O)N2CC(Cc3cccc(F)c3)N=C2c2[nH]c(C3CCCC3)nc21 (stereo not drawn) [Compound 19, 2-cyclopentyl-8-(3-fluorobenzyl)-7,8-dihydro-4-propyl-1H-imidazo[2,1-i]purin-5(4H)-one hydrochloride]	223.8 ng/mL	291 ± 42%	13.41 ± 1.95 ng·s/mL	–
CCCN1C(=O)N2CC(Cc3ccc(Br)cc3)N=C2c2[nH]c(C3CCCC3)nc21 (stereo not drawn) [Compound 23, 8-(4-bromobenzyl)-2-cyclopentyl-7,8-dihydro-4-propyl-1H-imidazo[2,1-i]purin-5(4H)-one hydrochloride]	249.9 ng/mL	228 ± 50%	11.85 ± 2.58 ng·s/mL	–
CCCN1C(=O)N2CC(CCc3ccccc3)N=C2c2[nH]c(C3CCCC3)nc21 (stereo not drawn) [Compound 31, 2-cyclopentyl-7,8-dihydro-8-phenethyl-4-propyl-1H-imidazo[2,1-i]purin-5(4H)-one hydrochloride]	220.5 ng/mL	173 ± 16%	9.00 ± 0.84 ng·s/mL	–
CCCc1nc2c([nH]1)C1=N[C@H](Cc3ccccc3)CN1C(=O)N2CCC [Compound 35, (R)-8-benzyl-7,8-dihydro-2,4-dipropyl-1H-imidazo[2,1-i]purin-5(4H)-one hydrochloride]	232.4 ng/mL	178 ± 23%	15.69 ± 2.04 ng·s/mL	–
